Measured values: patent US7041625B2, “Method to inhibit ethylene responses in plants” (Rohm and Haas Company, priority 2003, dated 2006)

What was measured:
[1] = system: ethylene-induced epinasty in tomato plants; assay: Tomato epinasty test, volatile gas treatment; format: in vivo, Patio variety tomato seedlings; settings: ethylene 10 ppm v/v injected four hours later, scored visually sixteen hours later, 10 = complete protection, 0 = no protection; for Gas @ 10 ppm: degree of protection against ethylene-induced epinasty, rating on a scale of 0 to 10: compound as volatile gas at 10 ppm v/v
Procedure: (§1) Objective: The test procedure is designed to determine the ability of an experimental compound to block the epinastic growth response induced by ethylene in tomato plants when the experimental compound is administered either as a volatile gas or as a component of a spray solution.
(§2) Treatment chambers are of an appropriate size for the test plants and are airtight. Each is fitted with a reusable septum to be used for injection of ethylene. Test plants are Patio variety tomato seedlings planted two plants per three inch square plastic pot.
Volatile gas treatment entails placing two pots of Patio var. tomatoes into a polystyrene 4.8 L volume treatment chamber along with one-half (upper or lower section) of a 50×9 mm plastic Petri dish containing a Gelman filter pad. The appropriate amount of experimental compound, dissolved in 1.0 ml acetone, is pipetted onto the filter pad and the chamber immediately sealed. Four hours later ethylene gas equal to 10 ppm v/v final concentration is injected into the sealed chamber. Sixteen hours later the chambers are opened in an exhaust hood, allowed to air and the plants scored visually for the degree of protection against ethylene-induced epinasty conferred by the experimental compound when compared to ethylene treated and untreated controls on a scale of 0 to 10. A rating of 10 means complete protection. A rating of 0 means no protection from the effects of ethylene. Gas treatment concentrations are volume/volume.

[2] = system: ethylene-induced epinasty in tomato plants; assay: Tomato epinasty test, spray application treatment; format: in vivo, Patio variety tomato seedlings; settings: spray at 10 ppm in 10% acetone/90% water with 0.05% Silwett L-77; air-dried four hours; ethylene 10 ppm v/v; scored visually sixteen hours later; 10 = complete protection, 0 = no protection
Procedure: as §1, §2
Spray application treatment entails using a DeVilbiss atomizer to completely cover all foliage and stems of two pots of Patio var. tomato plants with the appropriate amount of experimental compound dissolved in 10% acetone/90% water with 0.05% Silwett L-77 surfactant. Plants are air-dried in a drying hood for four hours then transferred to a 4.8 L polystyrene chamber which is sealed.
Ethylene gas equal to 10 ppm v/v final concentration is injected into the sealed chamber. Sixteen hours later the chambers are opened in an exhaust hood, allowed to air and the plants scored visually for the degree of protection against ethylene-induced epinasty conferred by the experimental compound when compared to ethylene treated and untreated controls on a scale of 0 to 10. A rating of 10 means complete protection. […]

Compound	Gas @ 10 ppm: degree of protection against ethylene-induced epinasty, rating on a scale of 0 to 10 [1]	Spray @ 10 ppm: degree of protection against ethylene-induced epinasty, rating on a scale of 0 to 10 [2]	Gas @ 1000 ppm: degree of protection against ethylene-induced epinasty, rating on a scale of 0 to 10 ([1]; compound as volatile gas at 1000 ppm v/v)
C1=C2CCCCCC12 (centres unmarked) [Compound 1, Bicyclo[5.1.0]oct-1(8)-ene]	8	0	
CCCCCCCCC1=CC12OCC(C)(C)CO2 [Compound 2, 6.6-Dimethyl-1-octyl-4.8-dioxa-spiro[2.5]oct-1-ene]	0	0	4
